The values that follow come from patent publication US20250186403A1 (ARIZONA BOARD OF REGENTS ON BEHALF OF THE UNIVERSITY OF …, priority 2022, published 2025).

“And” between values parts separate entries of the source, which are not always exact repeats. Identical values can stand only once.

Series [1] in a line: Cytotoxicity (Cell Counting Kit-8). To be noted: mouse, PMA-differentiated RAW 264.7 macrophage cells, PMA-differentiated RAW 264.7 cells. Format: cell-based, murine. The protocol: (§1) FIGS. 4A, 4B, and 4C show in vitro and in vivo toxicity. […] A549 and RAW 264.7 cells were grown in 96 well plates till 70% confluent. RAW 264.7 cells were differentiated into macrophages using PMA. […] The cell viability was estimated by Cell Counting Kit-8 (GlpBio, CA, USA), and absorbance was read at 450 nm using microplate reader Synergy H1 (BioTek). CC50 was calculated by GraphPad prism. […] Abs: absorbance. […] Bodyweight and other parameters were monitored daily (Table 3).
Cells were seeded in 96 well plates at 1.5×10^4 cells/well of 96 well plates in DMEM media and incubated at a CO2 incubator at 37° C. for 24 h. For differentiation to macrophages, the media was replaced with fresh media containing 100 nM PMA and further incubated for 48 h in a CO2 incubator.
A general note: Formazan colour is commonly taken as a measure of viable cells.

Series [2] relates to Cne-WT in RAW 264.7 macrophages. Briefly: Phagocytosis assay (macrophage intracellular infection model). To be noted: for reduction of intracellular Cne in macrophages: 24 h, macrophage lysate. Format: cell-based, Cryptococcus neoformans. The protocol:
FIGS. 1B, 1C, and 1D show phagocytosis assays. RAW 264.7 cells were seeded in 24 well plates and differentiated into macrophages using PMA. Media was replaced with fresh media containing opsonized Cne-WT and incubated at 37° C. for 8 h. Cells were washed 3 times with PBS to remove non-phagocytosed fungal cells. […] Culture supernatants were diluted and plated onto SD agar plates for tittering the fungal load. The cells were washed thrice with PBS and homogenized with a small homogenizer, diluted, and plated on SD agar plates. Colonies were counted after 72 h. […] Treatment groups were compared with unpaired Student's t-test. p<0.05 is considered significant. […] Insert: enlarged view of the phagocytosed Cne cells. The cells were permeabilized with methanol and stained with Giemsa stain. CFU: […] Cne: Cryptococcus neoformans.
Phagocytosis assay: Mouse monocyte/macrophage-like cells RAW 264.7 were seeded in the six-well plate in DMEM media with 10% FBS and incubated at 37° C. in a CO2 incubator. Once it reached 70% confluently, the cells were differentiated into macrophages by replacing the culture supernatant with fresh media containing 100 nM phorbol 12-myristate 13-acetate (PMA) and incubated at 37° C. for 48 h in a CO2 incubator. Differentiated cells in six-well plates were washed once with PBS to remove loosely bound cells. Cne-WT cells were grown overnight in the SD broth media and washed thrice in 0.1 mM PBS, opsonized with 20% human complement serum (Sigma, USA) and 20 μg glucuronoxylomannan specific antibody (clone 18B7, EMD Millipore, USA) by incubating at 37° C. for 30 min with rotating end to end. The Cne cells were washed thrice with PBS to remove unbound antibodies and serum components. The opsonized Cne cells were added to the macrophages at 1:10 ratio and incubated at 37° C. for 10 h. […] The fungal load in the media and the cells was estimated. For tittering, 100 μl of the culture supernatant was plated onto the SD-agar plates with tenfold dilutions. The cells were washed with PBS, scraped, and harvested in PBS, homogenized with a disposable homogenizer. A volume of 30 μl was mixed with 60 μl SD media and plated onto the SD agar plates. The plates were incubated at 30° C. for 72 h, and colonies were counted.

Series [3] has as its target T1, recombinant Drosophila Hh protein (C-Hh-Y) (Drosophila melanogaster, UniProt Q02936).
T1 construct: His tag (inferred from 'purified similarly', i.e. Ni-NTA); made in house; host or cells: E. coli LMG194
Briefly: Hh cholesterolysis assay. It counts as biochemical. To be noted: CMN at up to 200 µM, 22 h. As to the method:
The Tm values were calculated by Thermal shift software. […] The assay was repeated three times. […]
The hedgehog FRET protein C-Hh-Y was expressed and purified similarly, except that the protein was expressed in E. coli strain LMG194, induced with arabinose at 16° C. overnight, and the purified protein was stored in a storage buffer containing 10% glycerol and 4 mM TCEP.
Hh cholesterolysis assay: Cholesterolysis assay was done as per published methodology with modifications. […] With 50 μl reaction volume, a fixed volume of DMSO or CNM with varying concentrations (final 6.25 to 200 µM) were added and incubated at RT for 30 min. Cholesterolysis was induced by adding 1 μl stock solution of cholesterol in ethanol to each tube to attain a final concentration of 200 µM. After incubating at RT for 22 h, 20 μl of the reaction mixture was mixed with an equal volume of reducing SDS-PAGE loading buffer and loaded onto the 12% SDS-PAGE gel, followed by coomassie blue staining. Gel images were taken using the ChemiDoc imaging system (Bio-Rad). Band densities were analyzed using the Image lab software and compared with Student's t-test using the GraphPad Prism software version 9.1.0.

Series [4] can be described thus: Cytotoxicity (Cell Counting Kit-8). Format: cell-based. Particulars: human, A549 cells. The protocol:
as §1
Approximately 2×10^4 A549 cells in MEM media with 10% FBS were seeded per well of 96 well plates and incubated at 37° C. to reach 70% confluent. […] The plates were incubated for 48 h before the addition of 10 μl water-soluble […] (Cell counting kit-8, Glpbio Technology) to each well and incubated at 37° C. for 3 h.

[5] abbreviates: Cryptococcus neoformans, RAW264.7, 24 h, read-out: inhibition of released Cne.

One may read the CC50 as the concentration at which the toxic effect on the cells reaches its halfway point. Usually inhibition stands for the share of the control response that was lost under treatment.

T1 sequence (Q02936 258-471): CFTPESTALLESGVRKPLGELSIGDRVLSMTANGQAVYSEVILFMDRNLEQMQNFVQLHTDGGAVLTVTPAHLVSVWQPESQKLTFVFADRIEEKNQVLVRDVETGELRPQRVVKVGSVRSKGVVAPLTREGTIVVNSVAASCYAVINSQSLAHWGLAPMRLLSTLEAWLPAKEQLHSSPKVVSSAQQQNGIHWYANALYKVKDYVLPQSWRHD

Take `CNc1ccc2oc(C[C@H]3O[C@@]4(CC[C@H]3C)O[C@H]([C@H](C)C(=O)c3ccc[nH]3)[C@H](C)C[C@H]4C)nc2c1C(=O)O` [CMN, calcimycin]: the CC50 at 48 h was 8.6 µM and 4.5 µg/mL in series [1]; 16.3 µM and 8.6 µg/mL in series [4]. Further, the “reduction of intracellular Cne in macrophages” value in series [2] (0.3 μg/ml CMN) amounted to 23%; in series [2] (0.6 μg/ml CMN), 50%; in series [2] (CMN) it was 72%. Moreover, the inhibition at 0.3 µg/mL in series [2] (setting [5]) amounted to 41%. Besides, the inhibition at 0.6 µg/mL in series [2] (setting [5]) came out at 59%. In addition, the inhibition at 1.3 µg/mL in series [2] (setting [5]) came to 69%. In series [2] (at 0.3 μg/ml), the “released Cne (significance)” value is listed as “significantly reduced”. Further, the “growth of intracellular Cne in macrophages (significance)” value in series [2] (at 0.6 μg/ml) is recorded as “significantly reduced”. In series [3], the “density of spliced product, hedgehog cholesterolysis” value is “did not change the density of spliced product”.
